Test results published in US8791050B2, “Herbicidal compositions” (priority 1998, dated 2014).

Tests used:
Type in all cases: in vivo
rice [1] = assay: Selectivity: damage to rice, field trial
Description: The damage and development of all above-ground parts of the plants were recorded. […] The scores of in each case 4 plots were averaged.
Crop plants were grown outdoors on plots under natural outdoor conditions, and seeds or rhizome pieces of typical harmful plants were laid out or the natural weed growth was utilized.

[2] = system: Echinochloa colona (ECHCO); assay: Herbicidal effect in rice, field trial, Echinochloa colona; conditions: post-emergence 2-4-leaf stage, 45 g of AS/ha
Description: (§1) The herbicidal efficacy of the active compounds or active compound mixtures was scored visually using the treated plots in comparison to untreated control plots. The damage and development of all above-ground parts of the plants were recorded. Scoring was carried out using a percentage scale (100% effect=all plants killed; 50% effect=50% of the plants and the green parts of the plants killed; 0% effect=no noticeable effect=like control plot). The scores of in each case 4 plots were averaged.
(§2) If the observed activity values already exceed the formal sum of the values for the trials with the individual applications, they also exceed the expected value according to Colby which is calculated using the following formula and which is likewise considered to be an indication of synergism (cf. S. R. Colby; in Weeds 15 (1967) pp. 20 to 22): E=A+B−(A·B/100)
(§3) Crop plants were grown outdoors on plots under natural outdoor conditions, and seeds or rhizome pieces of typical harmful plants were laid out or the natural weed growth was utilized. Treatment with the compositions according to the invention was carried out after the harmful plants had emerged and the crop plants were, generally, at the 2- to 4-leaf stage; in some cases (as stated), application of individual active compounds or active compound combinations was carried out pre-emergence (cf. Example 1) or as a sequential treatment partly pre-emergence and/or post-emergence.
(§4) After the application, for example 2, 4, 6 and 8 weeks after the application, the effect of the preparations was scored visually by comparison with untreated controls (cf. scoring in Example 1). In the field trial as well, the compositions according to the invention have synergistic herbicidal activity against a broad spectrum of economically important weed grasses and broad-leaved weeds. […] Moreover, the effects in essential phases of the scoring period were above the expected values according to Colby (cf. scoring in Example 1), also indicating synergism. In contrast, the crop plants were, as a consequence of the treatments with the herbicidal compositions, damaged only to a small degree, if at all.

Eleusine indica (ELEIN) = assay: Herbicidal effect in rice, field trial, Eleusine indica; conditions: Table 4 field trial, post-emergence 2-4-leaf stage, scoring 28 days after application, 45 g of AS/ha
Description: as §1, §2, §3
as §4, with “In contrast, the crop plants were, as a consequence of the treatments with the herbicidal compositions, damaged only to a small degree, if at all.” left out

[3] = system: Sagittaria pygmaea (SAGPY); assay: Herbicidal effect in rice, greenhouse trial, Sagittaria pygmaea; conditions: Table 5 greenhouse trial, post-emergence 1-2-leaf stage, scoring 20 days after application
Description: as §1, §2
Seeds or rhizome pieces of monocotyledonous and dicotyledonous weeds are placed in sandy loam soil in pots, covered with soil and grown in a greenhouse under good growth conditions (temperature, atmospheric humidity, water supply). […] The compositions according to the invention, formulated as wettable powders or as emulsion concentrates, are sprayed, at various dosages, onto the green parts of the plant at an application rate of 600 to 800 l of water/ha (converted). After the test plants have been in the greenhouse for about 3 to 4 weeks under ideal growth conditions, the effect of the preparations is scored visually by comparison with untreated controls. The compositions according to the invention also have a good herbicidal post-emergence activity against a broad spectrum of economically important weed grasses and weeds.
(§5) Frequently, activities of the combinations according to the invention are observed which exceed the formal sum of the activities when the herbicides are applied individually.

rice [4] = assay: Selectivity: damage to rice, greenhouse trial; conditions: scoring 20 days after application
[5] = system: Echinochloa crus-galli (ECHCG); assay: Herbicidal effect in rice, greenhouse trial, Echinochloa crus-galli; conditions: Table 6 greenhouse trial, post-emergence 3-4-leaf stage, scoring 20 days after application
Description: as §1, §2
Seeds or rhizome pieces of monocotyledonous and dicotyledonous weeds are placed in sandy loam soil in pots, covered with soil and grown in a greenhouse under good growth conditions (temperature, atmospheric humidity, water supply). Three weeks after sowing, the test plants are treated at the three-leaf stage with the compositions according to the invention. The compositions according to the invention, formulated as wettable powders or as emulsion concentrates, are sprayed, at various dosages, onto the green parts of the plant at an application rate of 600 to 800 l of water/ha (converted). After the test plants have been in the greenhouse for about 3 to 4 weeks under ideal growth conditions, the effect of the preparations is scored visually by comparison with untreated controls. The compositions according to the invention also have a good herbicidal post-emergence activity against a broad spectrum of economically important weed grasses and weeds.
as §5

[6] = system: Echinochloa crus-galli (ECHCG); assay: Herbicidal effect in rice, field trial, Echinochloa crus-galli
Description: as §1, §2, §3, §4

[7] = system: Amaranthus retroflexus (AMARE); assay: Herbicidal effect in rice, field trial, Amaranthus retroflexus; conditions: Table 7 field trial, post-emergence 2-4-leaf stage, scoring 28 days after application, 3000 g of AS/ha
Description: as §1, §2, §3
as §4, with “In contrast, the crop plants were, as a consequence of the treatments with the herbicidal compositions, damaged only to a small degree, if at all.” left out

Cyperus iria (CYPIR) = assay: Herbicidal effect in rice, field trial, Cyperus iria; conditions: Table 14 field trial, post-emergence 3-leaf stage, scoring 42 days after application, 1500 g of AS/ha
Description: as §1, §2, §3
as §4, with “In contrast, the crop plants were, as a consequence of the treatments with the herbicidal compositions, damaged only to a small degree, if at all.” left out

[8] = system: Sesbania exaltata (SEBEX); assay: Herbicidal effect in rice, field trial, Sesbania exaltata; conditions: Table 10 field trial, post-emergence 2-4-leaf stage, scoring 28 days after application, 32 g of AS/ha
Description: as §1, §2
Crop plants were grown outdoors on plots under natural outdoor conditions, and seeds or rhizome pieces of typical harmful plants were laid out or the natural weed growth was utilized. […]
After the application, for example 2, 4, 6 and 8 weeks after the application, the effect of the preparations was scored visually by comparison with untreated controls (cf. scoring in Example 1). […]

[9] = Table 12 field trial, post-emergence 3-leaf stage, scoring 12 days after application, 20 g of AS/ha
[10] = Table 12 field trial, post-emergence 3-leaf stage, scoring 12 days after application, 40 g of AS/ha
[11] = Table 12 field trial, post-emergence 3-leaf stage, scoring 12 days after application, 80 g of AS/ha
[12] = Table 6 greenhouse trial, post-emergence 3-4-leaf stage, 18 g of AS/ha
[13] = Table 6 greenhouse trial, post-emergence 3-4-leaf stage, 37 g of AS/ha
[14] = Table 6 greenhouse trial, post-emergence 3-4-leaf stage, 75 g of AS/ha
[15] = Table 12 field trial, post-emergence 3-leaf stage, scoring 12 days after application, 1250 g of AS/ha
[16] = Table 12 field trial, post-emergence 3-leaf stage, scoring 12 days after application, 2500 g of AS/ha
[17] = Table 12 field trial, post-emergence 3-leaf stage, scoring 12 days after application, 5000 g of AS/ha
[18] = Table 13 field trial, post-emergence 1-2-leaf stage, scoring 28 days after application, 37.5 g of AS/ha

SMILES: CCOC(=O)[C@@H](C)Oc1ccc(Oc2nc3ccc(Cl)cc3o2)cc1 [(A1.1), fenoxaprop-P-ethyl]
- Damage (in %) to rice (rice [1]; Table 2 field trial, post-emergence 2-4-leaf stage, scoring 21 days after application, 45 g of AS/ha): 0%
- Damage (in %) to rice (rice [1]; Table 3 field trial, post-emergence 2-4-leaf stage, scoring 28 days after application, 45 g of AS/ha): 21%
- Damage (in %) to rice (rice [1]; Table 4 field trial, post-emergence 2-4-leaf stage, scoring 28 days after application, 45 g of AS/ha): 21%
- Damage (in %) to rice (rice [1]; [9]): 0%
- Damage (in %) to rice (rice [1]; [10]): 0%
- Damage (in %) to rice (rice [1]; [11]): 5%
- Herbicidal effect (in %) against ECHCO ([2]; Table 2 field trial, scoring 21 days after application): 51%
- Herbicidal effect (in %) against ECHCO ([2]; Table 3 field trial, scoring 28 days after application): 83%
- Herbicidal effect (in %) against ELEIN (Eleusine indica (ELEIN)): 80%
- Herbicidal effect (in %) against SAGPY ([3]; 37.5 g of AS/ha): 0%
- Herbicidal effect (in %) against SAGPY ([3]; 75 g of AS/ha): 0%
- Damage (in %) to rice (rice [4]; Table 5 greenhouse trial, post-emergence 1-2-leaf stage, 37.5 g of AS/ha): 0%
- Damage (in %) to rice (rice [4]; Table 5 greenhouse trial, post-emergence 1-2-leaf stage, 75 g of AS/ha): 8%
- Damage (in %) to rice (rice [4]; [12]): 0%
- Damage (in %) to rice (rice [4]; [13]): 0%
- Damage (in %) to rice (rice [4]; [14]): 3%
- Herbicidal effect (in %) against ECHCG ([5]; 18 g of AS/ha): 15%
- Herbicidal effect (in %) against ECHCG ([5]; 37 g of AS/ha): 40%
- Herbicidal effect (in %) against ECHCG ([5]; 75 g of AS/ha): 82%
- Herbicidal effect (in %) against ECHCG [6, 9]: 80%
- Herbicidal effect (in %) against ECHCG [6, 10]: 95%
- Herbicidal effect (in %) against ECHCG [6, 11]: 97%

SMILES: CCC(=O)Nc1ccc(Cl)c(Cl)c1 [(B1.7), propanil]
- Damage (in %) to rice (rice [1]; [15]): 0%
- Damage (in %) to rice (rice [1]; [16]): 5%
- Damage (in %) to rice (rice [1]; [17]): 5%
- Herbicidal effect (in %) against ECHCG [6, 15]: 0%
- Herbicidal effect (in %) against ECHCG [6, 16]: 10%
- Herbicidal effect (in %) against ECHCG [6, 17]: 30%

SMILES: CCN(CC)C(=O)SCc1ccc(Cl)cc1 [(B1.11), thiobencarb]
- Herbicidal effect (in %) against AMARE [7]: 83%
- Herbicidal effect (in %) against CYPIR (Cyperus iria (CYPIR)): 78%

SMILES: CCN(C(=O)n1nnn(-c2ccccc2Cl)c1=O)C1CCCCC1 [(B1.15), fentrazamid]
- Herbicidal effect (in %) against SAGPY ([3]; 25 g of AS/ha): 0%
- Herbicidal effect (in %) against SAGPY ([3]; 50 g of AS/ha): 40%
- Herbicidal effect (in %) against SAGPY ([3]; 100 g of AS/ha): 80%
- Damage (in %) to rice (rice [4]; Table 5 greenhouse trial, post-emergence 1-2-leaf stage, 25 g of AS/ha): 0%
- Damage (in %) to rice (rice [4]; Table 5 greenhouse trial, post-emergence 1-2-leaf stage, 50 g of AS/ha): 0%
- Damage (in %) to rice (rice [4]; Table 5 greenhouse trial, post-emergence 1-2-leaf stage, 100 g of AS/ha): 0%

SMILES: CCC/C(=N\OCC(C)Oc1ccc(Cl)cc1)C1=C(O)CC(C2CCCSC2)CC1=O (stereo not shown) [(B1.31), clefoxidim]
- Damage (in %) to rice (rice [4]; [12]): 0%
- Damage (in %) to rice (rice [4]; [13]): 0%
- Damage (in %) to rice (rice [4]; [14]): 0%
- Herbicidal effect (in %) against ECHCG ([5]; 18 g of AS/ha): 0%
- Herbicidal effect (in %) against ECHCG ([5]; 37 g of AS/ha): 10%
- Herbicidal effect (in %) against ECHCG ([5]; 75 g of AS/ha): 83%

SMILES: Cc1nn(-c2cc(CC(Cl)C(=O)O)c(Cl)cc2F)c(=O)n1C(F)F (stereo not shown) [(B2.2), carfentrazone]
- Herbicidal effect (in %) against SEBEX [8]: 93%
- Damage (in %) to rice (rice [1]; Table 10 field trial, post-emergence 2-4-leaf stage, scoring 28 days after application, 32 g of AS/ha): 13%

SMILES: COc1nc(NC(=O)NS(=O)(=O)c2ccccc2C(F)(F)F)nc(C(F)(F)F)n1 [(B2.4), tritosulfuron]
- Damage (in %) to rice (rice [1]; [18]): 0%
- Herbicidal effect (in %) against ECHCG [6, 18]: 0%
